This note sets out measurements from patent US20120135923A1, “Use of Melanocortins to Treat Dyslipidemia” (IPSEN PHARMA, S.A.S., priority 2009, published 2012).

Read-outs that look alike come from different tables or passages of the source. Bridge positions count the residues as written; N and C are the ends. Square brackets hold non-standard residues; d marks the D form. Peptide text beside a SMILES is read from it. d2Nal = N[C@H](Cc1ccc2ccccc2c1)C(=O)O; Bta = N[C@@H](Cc1csc2ccccc12)C(=O)O; GABA = NCCCC(=O)O; βAla = NCCC(=O)O

Assay [1] has as its target T1, hMC1-R (Homo sapiens, UniProt Q01726).
T1 construct: expressed in transfected cells; host or cells: CHO-K1
As to the kind of experiment: cyclic AMP bioassay (ECL) in CHO-K1 cells. The assay is classed as cell-based.

Assay [2] has as its target T1, hMC1-R. In words: Radioligand binding assay, [125I]-NDP-α-MSH competition, CHO-K1 membranes. Here is the method:
(§1) Cellular membranes used for the in vitro receptor binding assays were obtained from transgenic CHO-K1 cells stably expressing hMC-R receptor subtypes 1, 3, 4 or 5. […] The pellets were resuspended in the same buffer and centrifuged at 50,000 g for 10 minutes at approximately 4° C. The washed pellets containing the cellular membranes were stored at approximately −80° C.
(§2) Cell membranes (1-10 μg protein/well) prepared as described above were incubated in 50 mM Tris-HCl at pH 7.4 containing 0.2% bovine serum albumin (BSA), 5 mM MgCl2, 1 mM CaCl2 and 0.1 mg/mL bacitracin, with increasing concentrations of the test compound and 0.1-0.3 nM [^25I]-NDP-α-MSH for approximately 90-120 minutes at approximately 37° C. […] Filters were washed three times with 50 mM Tris-HCl at pH 7.4 at a temperature of approximately 0-4° C. and then assayed for radioactivity using a Packard Topcount® scintillation counter. Binding data were analyzed by computer-assisted non-linear regression analysis (XL fit; IDBS).

A further assay concerns the target T2, hMC4-R (Homo sapiens, UniProt P32245).
T2 construct: expressed in transfected cells; host or cells: CHO-K1
As to the kind of experiment: cyclic AMP bioassay (ECL) in CHO-K1 cells. The assay is classed as cell-based.

Assay [3] addresses T3, hMC5-R (Homo sapiens, UniProt P33032).
T3 construct: expressed in transfected cells; host or cells: CHO-K1
As to the kind of experiment: cyclic AMP bioassay (ECL) in CHO-K1 cells. The assay is classed as cell-based.

The target in a further assay is T4, hMC3-R (Homo sapiens, UniProt P41968).
T4 construct: expressed in transfected cells; host or cells: CHO-K1
T4 sequence (P41968 whole entry): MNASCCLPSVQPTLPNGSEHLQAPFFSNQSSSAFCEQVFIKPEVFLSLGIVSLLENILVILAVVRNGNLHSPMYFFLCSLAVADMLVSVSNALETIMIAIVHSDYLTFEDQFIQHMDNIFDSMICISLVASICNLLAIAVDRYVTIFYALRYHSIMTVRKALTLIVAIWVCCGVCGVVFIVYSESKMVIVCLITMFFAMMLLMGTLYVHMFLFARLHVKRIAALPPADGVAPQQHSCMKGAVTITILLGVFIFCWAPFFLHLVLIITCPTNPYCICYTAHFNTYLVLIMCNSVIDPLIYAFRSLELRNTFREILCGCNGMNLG
In words: cyclic AMP bioassay (ECL) in CHO-K1 cells. Format: cell-based.

In assay [4] the target is T3, hMC5-R. As to the kind of experiment: Radioligand binding assay, [125I]-NDP-α-MSH competition, CHO-K1 membranes. The method, then: as §1, §2
The mark [5] stands for this setting: antagonist potency by Schild analysis, cAMP, CHO-K1 cells expressing hMC4-R, read-out: Kb hMC4-R.
[6] abbreviates: cAMP, CHO-K1 cells expressing hMC1-R, read-out: EC50 hMC1-R.
Where [7] appears, read: cAMP, CHO-K1 cells expressing hMC5-R, read-out: EC50 hMC5-R.
[8] abbreviates: antagonist potency by Schild analysis, cAMP, CHO-K1 cells expressing hMC3-R, read-out: Kb hMC3-R.

T2 sequence (P32245 whole entry): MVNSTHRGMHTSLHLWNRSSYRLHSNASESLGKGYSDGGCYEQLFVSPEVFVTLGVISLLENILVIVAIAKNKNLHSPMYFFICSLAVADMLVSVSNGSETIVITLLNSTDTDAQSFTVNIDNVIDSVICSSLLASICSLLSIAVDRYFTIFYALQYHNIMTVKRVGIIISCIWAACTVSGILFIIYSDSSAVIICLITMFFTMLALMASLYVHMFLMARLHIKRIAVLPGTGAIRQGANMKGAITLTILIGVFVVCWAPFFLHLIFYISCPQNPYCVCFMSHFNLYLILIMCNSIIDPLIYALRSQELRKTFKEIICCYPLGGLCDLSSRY
T1 sequence (Q01726 whole entry): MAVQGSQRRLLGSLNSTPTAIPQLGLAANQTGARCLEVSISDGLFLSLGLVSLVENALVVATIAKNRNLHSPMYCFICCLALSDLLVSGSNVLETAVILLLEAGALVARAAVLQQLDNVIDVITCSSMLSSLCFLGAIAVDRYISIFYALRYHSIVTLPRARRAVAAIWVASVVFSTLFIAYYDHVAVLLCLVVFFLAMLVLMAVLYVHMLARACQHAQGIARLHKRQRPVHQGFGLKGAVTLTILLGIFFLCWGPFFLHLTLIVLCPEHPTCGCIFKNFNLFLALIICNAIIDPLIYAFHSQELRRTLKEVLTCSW
T3 sequence (P33032 whole entry): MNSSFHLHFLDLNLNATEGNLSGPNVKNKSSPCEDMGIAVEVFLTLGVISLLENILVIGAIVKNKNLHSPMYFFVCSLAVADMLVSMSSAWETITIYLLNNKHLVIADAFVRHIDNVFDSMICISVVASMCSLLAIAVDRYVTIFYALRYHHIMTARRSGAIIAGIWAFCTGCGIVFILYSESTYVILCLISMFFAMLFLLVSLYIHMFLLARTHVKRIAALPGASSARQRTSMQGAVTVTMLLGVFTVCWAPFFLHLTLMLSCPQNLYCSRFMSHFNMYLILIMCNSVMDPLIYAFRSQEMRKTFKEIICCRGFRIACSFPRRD
Experimental for hMC3-R: Intracellular cyclic AMP (cAMP) levels were determined by an electrochemiluminescence (ECL) assay (Meso Scale Discovery®, Gaithersburg, Md.; referred to hereinafter as MSD). […] Transgenic CHO-K1 cells stably expressing hMC receptor subtypes 1, 3, 4 or 5 were dispensed at a density of approximately 7,000 cells/well in 384-well Multi-Array®plates (MSD) containing integrated carbon electrodes and coated with anti-cAMP antibody. Increasing concentrations of the test compounds were added and the cells were incubated for approximately 40 minutes at approximately 37° C. […] At the end of the second incubation period read buffer (Tris-buffered solution containing an ECL co-reactant and Triton X-100 at ph 7.8) was added and the cAMP levels in the cell lysates were immediately determined by ECL detection with a Sector Imager 6000 Reader® (MSD). Data were analyzed using a computer-assisted non-linear regression analysis (XL fit; IDBS) and reported as either an EC50 value or a Kb value.
The Kb value reflects the potency of an antagonist and is determined by Schild analysis. In brief, concentration-response curves of an agonist are carried out in the presence of increasing concentrations of an antagonist. […] It is calculated by extrapolating the line on a Schild plot to zero on the y-axis.

In general, EC50 refers to the concentration giving half of the maximal effect. What is called Ki is the dissociation constant of the complex between target and ligand, obtained from inhibition or displacement. As to `CCCC[C@H](NC(C)=O)C(=O)N[C@H]1CC(=O)NCCCC[C@@H](C(N)=O)NC(=O)CCNC(=O)[C@H](Cc2c[nH]c3ccccc23)NC(=O)[C@H](CCCNC(=N)N)NC(=O)[C@@H](Cc2ccc3ccccc3c2)NC(=O)[C@H](Cc2c[nH]cn2)NC1=O` [Ac-Nle-c(Asp-His-D-2-Nal-Arg-Trp-β-Ala-Lys)-NH2], the EC50 on hMC1-R [1] (Table 9C/9D, read-out: EC50 hMC1-R) was determined as 0.913 nM. Also, the Ki at hMC1-R [2] (Table 5, read-out: Ki hMC1-R) was 0.648 nM.
Turning to `CC(=O)N[C@H]1CSSC[C@@H](C(=O)N2CCC[C@H]2C(=O)N2CCC[C@H]2C(=O)N[C@@H](CCCNC(=N)N)C(=O)N[C@@H](CC(=O)O)C(=O)NCCC(=O)N[C@@H](CCCNC(=N)N)C(=O)N[C@@H](CCCNC(=N)N)C(=O)N[C@@H](CCCNC(=N)N)C(=O)N[C@@H](CCCNC(=N)N)C(=O)N[C@@H](CCCNC(=N)N)C(=O)N[C@@H](CCC(N)=O)C(=O)N[C@@H](CCCNC(=N)N)C(=O)N[C@@H](CCCNC(=N)N)C(=O)N[C@@H](CCCNC(=N)N)C(N)=O)NC(=O)[C@H](C)NC(=O)[C@H](Cc2csc3ccccc23)NC(=O)[C@H](CCCNC(=N)N)NC(=O)[C@@H](Cc2ccc3ccccc3c2)NC(=O)[C@H](Cc2c[nH]cn2)NC(=O)[C@H](CCC(=O)O)NC1=O`, the Kb came to 21.2 nM on hMC4-R and 20.2 nM on hMC3-R. In addition, the EC50 at hMC1-R [1] is 38.3 nM; at hMC5-R [3], > 10000 nM. Affinity at hMC5-R [4] (Ki hMC5-R, Table 6) was put at a Ki of 48.3 nM.
Turning to `CCCC[C@@H]1NC(=O)N(CC(=O)N[C@H]2CSSC[C@@H](C(N)=O)NC(=O)[C@H](Cc3c[nH]c4ccccc34)NC(=O)[C@H](CCCNC(=N)N)NC(=O)[C@@H](Cc3ccccc3)NC(=O)[C@H](Cc3cnc[nH]3)NC(=O)[C@H](CCC(=O)O)NC2=O)C1=O` [Hydantoin(C(O)-(Nle-Gly))-c(Cys-Glu-His-D-Phe-Arg-Trp-Cys)-NH2], the EC50 on hMC4-R (Table 11, read-out: EC50 hMC4) amounted to 0.177 nM; at hMC1-R [1] (Table 11, read-out: EC50 hMC1) it was 54.3 nM; at hMC3-R (Table 11, read-out: EC50 hMC3), 12.2 nM. Further, the Ki at hMC1-R [2] (Table 7, read-out: Ki hMC1) was determined as 14.3 nM.
For the compound `CC(=O)N[C@H]1CSSC[C@@H](C(=O)N2CCC[C@H]2C(=O)N2CCC[C@H]2C(=O)N[C@@H](CCCCN)C(=O)N[C@@H](CC(=O)O)C(=O)NCCC(=O)N[C@@H](CCCNC(=N)N)C(=O)N[C@@H](CCCCN)C(=O)N[C@@H](CCCNC(=N)N)C(=O)N[C@@H](CCCNC(=N)N)C(=O)N[C@@H](CCCNC(=N)N)C(=O)N[C@@H](CCC(N)=O)C(=O)N[C@@H](CCCNC(=N)N)C(=O)N[C@@H](CCCNC(=N)N)C(=O)N[C@@H](CCCNC(=N)N)C(N)=O)NC(=O)[C@H](C)NC(=O)[C@H](Cc2csc3ccccc23)NC(=O)[C@H](CCCNC(=N)N)NC(=O)[C@@H](Cc2ccc3ccccc3c2)NC(=O)[C@H](Cc2c[nH]cn2)NC(=O)[C@H](CCC(=O)O)NC1=O`, the Kb at hMC4-R turned out to be 4.59 nM; at hMC3-R, 106 nM. Further, the EC50 at hMC1-R [1] is 19.1 nM; at hMC5-R [3], 100 nM. The same compound showed a Ki at hMC5-R [4] (Ki hMC5-R, Table 6) of 15.5 nM.
With `CC(=O)N[C@H](C(=O)N[C@H]1CSSC[C@@H](C(N)=O)NC(=O)CCCNC(=O)[C@H](Cc2c[nH]c3ccccc23)NC(=O)[C@H](CCCNC(=N)N)NC(=O)[C@@H](Cc2ccccc2)NC(=O)[C@H](Cc2c[nH]cn2)NC1=O)C(C)C` [Ac-Val-c(Cys-His-D-Phe-Arg-Trp-Gaba-Cys)-NH2] (Ac-VCH[dF]RW[GABA]C-NH2; disulfide 2-8 (inferred)), the Ki on hMC1-R [2] (Table 5, read-out: Ki hMC1-R) is 0.256 nM.
As to `C[C@H]1NC(=O)[C@@H](NC(=O)CN2C(=O)CNC2=O)CSSC[C@@H](C(N)=O)NC(=O)[C@H](Cc2c[nH]c3ccccc23)NC(=O)[C@H](CCCNC(=N)N)NC(=O)[C@@H](Cc2ccccc2)NC(=O)[C@H](Cc2cnc[nH]2)NC1=O` [Hydantoin(C(O)-(Gly-Gly))-c(Cys-D-Ala-His-D-Phe-Arg-Trp-Cys)-NH2], the EC50 on hMC4-R came to 0.336 nM; at hMC1-R [1], 14.2 nM; at hMC5-R [3] it was 201 nM; on hMC3-R, 2.46 nM. At hMC5-R [4] (Ki hMC5, Table 7), this compound had a Ki of 50 nM.
In the case of `CCCC[C@H](NC(C)=O)C(=O)N[C@H]1CSSC[C@@H](C(N)=O)NC(=O)CCNC(=O)[C@@H](Cc2c[nH]c3ccccc23)NC(=O)[C@H](CCCNC(=N)N)NC(=O)[C@@H](Cc2ccccc2)NC(=O)[C@H](Cc2c[nH]cn2)NC1=O` [Ac-Nle-c(Cys-His-D-Phe-Arg-D-Trp-β-Ala-Cys)-NH2], the Ki at hMC1-R [2] (Table 5, read-out: Ki hMC1-R) turned out to be 0.323 nM.
For the compound `C[C@H]1NC(=O)[C@@H](NC(=O)CN2C(=O)N[C@@H](CCCNC(=N)N)C2=O)CSSC[C@@H](C(N)=O)NC(=O)[C@H](Cc2c[nH]c3ccccc23)NC(=O)[C@H](CCCNC(=N)N)NC(=O)[C@@H](Cc2ccc3ccccc3c2)NC(=O)[C@H](Cc2cnc[nH]2)NC1=O` [Hydantoin(C(O)-(Arg-Gly))-c(Cys-D-Ala-His-D-2-Nal-Arg-Trp-Cys)-NH2], the EC50 was 21.2 nM on hMC4-R, 96.6 nM at hMC1-R [1], 103 nM on hMC5-R [3] and 13.1 nM on hMC3-R. In addition, on hMC5-R [4] (Ki hMC5, Table 7), the Ki was found to be 14.6 nM.
Turning to `CC(=O)N[C@H]1CSSC[C@@H](C(=O)N2CCC[C@H]2C(=O)N2CCC[C@H]2C(=O)N[C@@H](CCCCN)C(=O)N[C@@H](CC(=O)O)C(=O)NCCC(=O)N[C@@H](Cc2ccc(O)cc2)C(=O)NCC(=O)N[C@@H](CCCNC(=N)N)C(=O)N[C@@H](CCCCN)C(=O)N[C@@H](CCCCN)C(=O)N[C@@H](CCCNC(=N)N)C(=O)N[C@@H](CCCNC(=N)N)C(=O)N[C@@H](CCC(N)=O)C(=O)N[C@@H](CCCNC(=N)N)C(=O)N[C@@H](CCCNC(=N)N)C(=O)N[C@@H](CCCNC(=N)N)C(N)=O)NC(=O)[C@H](C)NC(=O)[C@H](Cc2csc3ccccc23)NC(=O)[C@H](CCCNC(=N)N)NC(=O)[C@@H](Cc2ccc3ccccc3c2)NC(=O)[C@H](Cc2c[nH]cn2)NC(=O)[C@H](CCC(=O)O)NC1=O`, the Kb on hMC4-R (setting [5]) was found to be 41.1 nM; at hMC3-R (setting [8]), 112 nM. The EC50 amounted to 37.9 nM at hMC1-R [1] (setting [6]) and 1800 nM at hMC5-R [3] (setting [7]). For the same compound, the Ki on hMC5-R [4] (Table 6, read-out: Ki hMC5-R) came to 15.3 nM.
Consider `CC(=O)N[C@@H](CCCNC(=N)N)C(=O)N[C@H]1CC(=O)NCCCC[C@@H](C(N)=O)NC(=O)[C@H](C)NC(=O)[C@H](Cc2c[nH]c3ccccc23)NC(=O)[C@H](CCCNC(=N)N)NC(=O)[C@@H](Cc2ccccc2)NC(=O)[C@H](Cc2c[nH]cn2)NC1=O` [Ac-Arg-c(Asp-His-D-Phe-Arg-Trp-Ala-Lys)-NH2], for which the EC50 amounted to 0.055 nM at hMC4-R (Table 9A/9B, read-out: EC50 hMC4-R); 1.39 nM on hMC1-R [1] (Table 9A/9B, read-out: EC50 hMC1-R); 467 nM on hMC5-R [3] (Table 9A/9B, read-out: EC50 hMC5-R); 2.89 nM on hMC3-R (Table 9A/9B, read-out: EC50 hMC3-R). Further, the Ki at hMC5-R [4] (Table 5, read-out: Ki hMC5-R) was determined as 783 nM.
`CC(=O)N[C@H]1CSSC[C@@H](C(=O)N2CCC[C@H]2C(=O)N2CCC[C@H]2C(=O)N[C@@H](CCCCN)C(=O)N[C@@H](CC(=O)O)C(=O)NCCC(=O)NCC(=O)N[C@@H](CCCNC(=N)N)C(=O)N[C@@H](CCCNC(=N)N)C(=O)N[C@@H](CCCNC(=N)N)C(=O)N[C@@H](CCCNC(=N)N)C(=O)N[C@@H](CCCNC(=N)N)C(=O)N[C@@H](CCC(N)=O)C(=O)N[C@@H](CCCNC(=N)N)C(=O)N[C@@H](CCCNC(=N)N)C(=O)N[C@@H](CCCNC(=N)N)C(N)=O)NC(=O)[C@H](C)NC(=O)[C@H](Cc2csc3ccccc23)NC(=O)[C@H](CCCNC(=N)N)NC(=O)[C@@H](Cc2ccc3ccccc3c2)NC(=O)[C@H](Cc2c[nH]cn2)NC(=O)[C@H](CCC(=O)O)NC1=O` (Ac-CEH[d2Nal]R[Bta]ACPPKD[βAla]GRRRRRQRRR-NH2; disulfide 1-8): the figures for the Kb at hMC4-R (setting [5]) and on hMC3-R (setting [8]) were 32 nM and 104 nM, respectively. The EC50 at hMC1-R [1] (setting [6]) was determined as 146 nM; at hMC5-R [3] (setting [7]) it was 1400 nM. Moreover, at hMC5-R [4] (Table 6, read-out: Ki hMC5-R), the inhibition constant (Ki) was determined as 165 nM.
